Measured values published in patent US10206937B2, “Boronic acid derivatives and therapeutic uses thereof” (Qpex Biopharma, Inc., priority 2014, dated 2019).
Where two headings read alike, the source gives them in different places.

Experiments:
[1] = molecular target: T1, NDM-1 (Klebsiella pneumoniae, UniProt C7C422); assay: biochemical
[2] = molecular target: T2, VIM-1 (Pseudomonas aeruginosa, UniProt A0A0F7KYQ8); assay: biochemical; details: cleavage of nitrocefin (200 uM) by VIM-1 supernatant
T2 construct: made in house; host or cells: ECM6711 strain carrying pUCP24-VIM-1 plasmid; culture supernatant used unpurified

[3] = molecular target: OXA-48 (Klebsiella pneumoniae, UniProt Q6XEC0); assay: Inhibition of purified class D carbapenemase OXA-48 (Ki, carbapenem substrates); assay type: biochemical
Chain of OXA-48 (Q6XEC0 23-265, looked up): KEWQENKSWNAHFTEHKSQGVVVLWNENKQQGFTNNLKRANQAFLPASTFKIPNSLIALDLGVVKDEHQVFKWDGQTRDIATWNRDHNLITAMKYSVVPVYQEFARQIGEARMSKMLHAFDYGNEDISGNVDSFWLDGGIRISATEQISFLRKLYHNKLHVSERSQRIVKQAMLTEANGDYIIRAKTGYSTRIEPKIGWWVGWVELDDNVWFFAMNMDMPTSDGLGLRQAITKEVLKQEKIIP

[4] = molecular target: T3, purified class A, C and D enzymes (UniProt P0AD64, L31Q/G234S/E235K, species not given); assay type: biochemical; details: read-out: Ki (SHV-12, NCF); purified SHV-12; nitrocefin reporter substrate
T3 construct: Ki (SHV-12, NCF); other: purified SHV-12; nitrocefin reporter substrate
T3 sequence (P0AD64 1-286 L31Q/G234S/E235K): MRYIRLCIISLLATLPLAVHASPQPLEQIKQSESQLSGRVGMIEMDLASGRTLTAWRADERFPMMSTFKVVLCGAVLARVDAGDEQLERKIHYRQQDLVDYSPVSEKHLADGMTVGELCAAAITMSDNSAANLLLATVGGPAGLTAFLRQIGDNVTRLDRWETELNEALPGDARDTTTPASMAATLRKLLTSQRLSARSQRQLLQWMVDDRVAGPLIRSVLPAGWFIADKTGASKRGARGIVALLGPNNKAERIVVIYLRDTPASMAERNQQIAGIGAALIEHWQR

[5] = molecular target: T4, purified class A, C and D enzymes (UniProt Q6XEC0); assay type: biochemical; details: read-out: Ki (OXA-48, NCF); purified OXA-48; nitrocefin reporter substrate
T4 construct: rows headed: Ki (OXA-48, NCF); other: purified OXA-48; nitrocefin reporter substrate

[6] = test system: strains of Enterobacteriaceae overexpressing various carbapenemases (class A and B); assay: organism not typed; assay type: cell-based
Source text: Several strains simultaneously expressing both class A and class B carbapenemases, which were constructed using conjugation, were also included in the panel.

[7] = molecular target: T1, NDM-1; assay: Inhibition of purified class B carbapenemase NDM-1 (Ki, imipenem substrate); assay type: biochemical; details: NDM-1, substrate imipenem; read-out: Ki NDM-1, Imipenem
[8] = molecular target: purified class A, C and D enzymes (Enterobacter cloacae, UniProt P05364); assay type: biochemical; details: purified P99/AmpC of ECL; nitrocefin reporter substrate
Chain of purified class A, C and D enzymes (Enterobacter cloacae, UniProt P05364) (P05364 21-381): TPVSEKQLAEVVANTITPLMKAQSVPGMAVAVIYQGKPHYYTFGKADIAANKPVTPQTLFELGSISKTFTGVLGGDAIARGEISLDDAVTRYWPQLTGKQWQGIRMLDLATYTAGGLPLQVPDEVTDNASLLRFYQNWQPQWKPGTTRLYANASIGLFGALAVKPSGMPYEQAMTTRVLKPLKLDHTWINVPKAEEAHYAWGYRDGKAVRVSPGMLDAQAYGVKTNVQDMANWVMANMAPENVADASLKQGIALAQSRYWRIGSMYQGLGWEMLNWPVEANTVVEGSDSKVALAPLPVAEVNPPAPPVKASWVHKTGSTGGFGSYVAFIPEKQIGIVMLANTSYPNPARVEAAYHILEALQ

[9] = molecular target: purified class A, C and D enzymes (Escherichia coli, UniProt Q9L5C7); assay type: biochemical; details: purified CTX-M-14; nitrocefin reporter substrate
Chain of purified class A, C and D enzymes (Escherichia coli, UniProt Q9L5C7) (Q9L5C7 entry or part of it): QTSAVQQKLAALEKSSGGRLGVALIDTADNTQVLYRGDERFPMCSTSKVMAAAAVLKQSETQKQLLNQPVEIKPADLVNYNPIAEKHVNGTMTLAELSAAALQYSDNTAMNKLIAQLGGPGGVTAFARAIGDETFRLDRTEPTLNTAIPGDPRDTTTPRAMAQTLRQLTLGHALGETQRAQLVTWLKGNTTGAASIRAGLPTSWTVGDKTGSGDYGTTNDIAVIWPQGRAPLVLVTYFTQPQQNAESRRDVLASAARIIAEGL

[10] = molecular target: T5, purified class A, C and D enzymes (UniProt Q9F663); assay type: biochemical; details: read-out: Ki (KPC-2, NCF); purified KPC-2; nitrocefin reporter substrate
T5 construct: rows headed: Ki (KPC-2, NCF); other: purified KPC-2; nitrocefin reporter substrate

[11] = test system: strains of Enterobacteriaceae producing various carbapenemases (class A, D and B; 169 strains); assay: Meropenem or tebipenem potentiation by Compounds 97 or 62 (MIC); assay type: cell-based; details: Compound 97 at a fixed concentration of 8 μg/ml
Description: The largest panel of clinical isolates expressing class A, D and B carbapenemases alone or in combination with other beta-lactamases (169 strains) was used to evaluate carbapenem potentiation activity of Compounds 97 and 62. MIC for meropenem and tebipenem of these strains were determined either alone or in the presence of Compounds 97 or 62, respectively, at a fixed concentration of 8 μg/ml in the growth media.

[12] = cleavage of biapenem (100 uM) by NDM-1, read-out: Ki, Biapenem
[13] = cleavage of imipenem (100 uM) by NDM-1, read-out: Ki, Imipenem
[14] = cleavage of meropenem (100 uM) by NDM-1, read-out: Ki, Meropenem
[15] = purified OXA-48, substrate biapenem, read-out: Ki OXA-48, Biapenem

T1 sequence (C7C422 29-270, looked up, species assumed): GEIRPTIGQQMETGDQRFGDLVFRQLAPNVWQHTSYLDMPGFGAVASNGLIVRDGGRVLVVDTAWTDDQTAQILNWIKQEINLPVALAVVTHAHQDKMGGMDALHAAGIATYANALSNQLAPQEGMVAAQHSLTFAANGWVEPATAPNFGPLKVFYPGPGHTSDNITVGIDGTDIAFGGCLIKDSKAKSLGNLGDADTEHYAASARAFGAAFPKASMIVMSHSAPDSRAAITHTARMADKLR

Row | SMILES | Ki [1, 12] [nM] | Ki [1, 13] [nM] | Ki [1, 14] [nM] | IC50 [2] [nM] | Ki ([3]; cleavage of biapenem by OXA-48, read-out: Ki, Biapenem) [nM] | Ki ([3]; cleavage of imipenem by OXA-48, read-out: Ki, Imipenem) [nM] | Ki ([3]; cleavage of meropenem by OXA-48, read-out: Ki, Meropenem) [nM] | Ki ([3]; cleavage of tebipenem by OXA-48, read-out: Ki, Tebipenem) [nM] | Ki [4] [nM] | Ki [5] [nM] | carbapenem MIC (imipenem, meropenem) [6] | Ki [7] [nM] | Ki (P99/AmpC of ECL, NCF) [8] | Ki (CTX-M-14, NCF) [9] | Ki [10] [nM] | meropenem MIC [11] | Ki [3, 15] [nM]
1 | Nn1cnnc1S[C@H]1Cc2cccc(C(=O)O)c2OB1O [Compound 14, (R)-3-(4-amino-4H-1,2,4-triazol-3-ylthio)-2-hydroxy-3,4-dihydro-2H-benzo[e][1,2]oxaborinine-8-carboxylic acid] | < 10 | < 10 | < 10 | < 1000 | 10 to 100 | 10 to 100 | > 100 | > 100 | < 100 | < 100 | significantly reduced | – | – | – | – | – | –
2 | COc1ccc2c(c1C(=O)O)OB(O)[C@@H](Sc1nnc(NCCN)s1)C2 [Compound 97, (3R)-3-[[5-(2-aminoethylamino)-1,3,4-thiadiazol-2-yl]sulfanyl]-2-hydroxy-7-methoxy-3,4-dihydro-1,2-benzoxaborinine-8-carboxylic acid] | – | < 10 | – | < 1000 | – | – | – | – | < 100 | < 100 | – | < 10 | Y (0.1 μM to 1 μM) | X (Less than 0.1 μM) | 100 to 1000 | significantly reduced | –
3 | O=C(O)c1cccc2c1OB(O)[C@@H](OC1CNC1)C2 [Compound 18, (R)-3-(azetidin-3-yloxy)-2-hydroxy-3,4-dihydro-2H-benzo[e][1,2]oxaborinine-8-carboxylic acid] | < 10 | 10 to 100 | < 10 | ≥ 1000 | – | – | – | – | < 100 | < 100 | – | 10 to 100 | – | – | 100 to 1000 | – | < 10
4 | CS[C@H]1Cc2cccc(C(=O)O)c2OB1O [Compound 16, (R)-2-hydroxy-3-(methylthio)-3,4-dihydro-2H-benzo[e][1,2]oxaborinine-8-carboxylic acid] | – | < 10 | – | < 1000 | – | – | – | – | 100 to 1000 | < 100 | – | – | – | – | < 100 | – | < 10
5 | O=CNc1cnc(S[C@H]2Cc3ccc(F)c(C(=O)O)c3OB2O)s1 [Compound 58, (3R)-7-fluoro-3-(5-formamidothiazol-2-yl)sulfanyl-2-hydroxy-3,4-dihydro-1,2-benzoxaborinine-8-carboxylic acid] | – | > 100 | – | < 1000 | – | – | – | – | < 100 | < 100 | – | > 100 | Y (0.1 μM to 1 μM) | X (Less than 0.1 μM) | 100 to 1000 | – | –
6 | NC(=O)CS[C@H]1Cc2ccc(F)c(C(=O)O)c2OB1O [Compound 49, (3R)-3-(2-amino-2-oxo-ethyl)sulfanyl-7-fluoro-2-hydroxy-3,4-dihydro-1,2-benzoxaborinine-8-carboxylic acid] | – | > 100 | – | ≥ 1000 | – | – | – | – | < 100 | < 100 | – | > 100 | Y (0.1 μM to 1 μM) | X (Less than 0.1 μM) | < 100 | – | –
7 | CCOc1ccc2c(c1C(=O)O)OB(O)[C@@H](Sc1nnc(N)s1)C2 [Compound 83, (3R)-3-[(5-amino-1,3,4-thiadiazol-2-yl)sulfanyl]-7-ethoxy-2-hydroxy-3,4-dihydro-1,2-benzoxaborinine-8-carboxylic acid] | – | < 10 | – | < 1000 | – | – | – | – | < 100 | < 100 | – | < 10 | Y (0.1 μM to 1 μM) | X (Less than 0.1 μM) | 100 to 1000 | – | –
8 | Nc1nnc(S[C@H]2Cc3c(F)cc(F)c(C(=O)O)c3OB2O)s1 [Compound 33, (R)-3-(5-amino-1,3,4-thiadiazol-2-ylthio)-5,7-difluoro-2-hydroxy-3,4-dihydro-2H-benzo[e][1,2]oxaborinine-8-carboxylic acid] | – | > 100 | – | ≥ 1000 | – | – | – | – | < 100 | < 100 | – | 10 to 100 | X (Less than 0.1 μM) | X (Less than 0.1 μM) | 100 to 1000 | – | –
9 | COc1ccc2c(c1C(=O)O)OB(O)[C@@H](Sc1nnc(SCC(=N)N)s1)C2 [Compound 67, (3R)-3-[[5-(2-amino-2-imino-ethyl)sulfanyl-1,3,4-thiadiazol-2-yl]sulfanyl]-2-hydroxy-7-methoxy-3,4-dihydro-1,2-benzoxaborinine-8-carboxylic acid] | – | < 10 | – | < 1000 | – | – | – | – | < 100 | < 100 | – | < 10 | Y (0.1 μM to 1 μM) | X (Less than 0.1 μM) | 100 to 1000 | – | –
10 | COc1ccc2c(c1C(=O)O)OB(O)[C@@H](Sc1c[nH]nn1)C2 [Compound 39, (R)-3-(1H-1,2,3-triazol-4-ylthio)-2-hydroxy-7-methoxy-3,4-dihydro-2H-benzo[e][1,2]oxaborinine-8-carboxylic acid] | – | > 100 | – | < 1000 | – | – | – | – | < 100 | < 100 | – | > 100 | Y (0.1 μM to 1 μM) | X (Less than 0.1 μM) | < 100 | – | –
11 | C[S+]([O-])c1ccc2c(c1C(=O)O)OB(O)[C@@H](Sc1nnc(N)s1)C2 (stereo partly drawn) [Compound 34, (3R)-3-(5-amino-1,3,4-thiadiazol-2-ylthio)-2-hydroxy-7-(methylsulfinyl)-3,4-dihydro-2H-benzo[e][1,2]oxaborinine-8-carboxylic acid] | – | 10 to 100 | – | < 1000 | – | – | – | – | < 100 | < 100 | – | 10 to 100 | X (Less than 0.1 μM) | X (Less than 0.1 μM) | 100 to 1000 | – | –
12 | CC(C)Oc1ccc2c(c1C(=O)O)OB(O)[C@@H](Sc1nncs1)C2 [Compound 85, (3R)-2-hydroxy-7-isopropoxy-3-(1,3,4-thiadiazol-2-ylsulfanyl)-3,4-dihydro-1,2-benzoxaborinine-8-carboxylic acid] | – | > 100 | – | < 1000 | – | – | – | – | < 100 | < 100 | – | > 100 | Y (0.1 μM to 1 μM) | X (Less than 0.1 μM) | 100 to 1000 | – | –
13 | CSc1ccc2c(c1C(=O)O)OB(O)[C@@H](Sc1nncn1C)C2 [Compound 29, (R)-2-hydroxy-3-(4-methyl-4H-1,2,4-triazol-3-ylthio)-7-(methylthio)-3,4-dihydro-2H-benzo[e][1,2]oxaborinine-8-carboxylic acid] | – | 10 to 100 | – | < 1000 | – | – | – | – | < 100 | < 100 | – | 10 to 100 | Y (0.1 μM to 1 μM) | X (Less than 0.1 μM) | 100 to 1000 | – | –
14 | COc1cc(OC)c(C(=O)O)c2c1C[C@H](Sc1nnc(N)s1)B(O)O2 [Compound 32, (R)-3-(5-amino-1,3,4-thiadiazol-2-ylthio)-2-hydroxy-5,7-dimethoxy-3,4-dihydro-2H-benzo[e][1,2]oxaborinine-8-carboxylic acid] | – | 10 to 100 | – | ≥ 1000 | – | – | – | – | < 100 | < 100 | – | 10 to 100 | X (Less than 0.1 μM) | X (Less than 0.1 μM) | < 100 | – | –
